Like-named read-outs stand apart in the source and are kept apart here.
Experiments:
NOP receptor = test: Antagonism of agonist effects by naloxone and [Nphe1]N/OFQ(1-13)NH2; settings: tested vs the novel agonist compounds or vs N/OFQ
Description: In isolated tissues the compounds having structure [Phe^1Ψ(CO—NH)Gly^2] mimicked the effects of N/OFQ inducing similar maximal effects, thus acting as full agonists, while those with the structure [Phe^1Ψ(CH2—NH)Gly^2] behaved as partial agonists producing lower maximal effects than N/OFQ. […] Some of the compounds evaluated in vitro were also tested in a battery of in vivo assays of biological functions regulated by N/OFQ. In all the assays most of the analogs mimicked the effects evoked by the natural peptide. In the locomotor activity assay some compounds have been tested at 1 nmol i.c.v. dose. These mimicked the inhibitory effect of N/OFQ, however while the effects of the natural peptide lasted for about 20 min, those induced by some of the novel derivatives were still evident after several hours. […] Similar results were also obtained in the mouse tail withdrawal assay were the compounds mimicked the hyperalgesic actions of N/OFQ.

[1] = system: N/OFQ-sensitive isolated tissues; test: N/OFQ-sensitive electrically stimulated isolated tissues (mouse and rat vas deferens, guinea pig ileum)
Text: The compounds of the Table have been evaluated in vitro in several N/OFQ-sensitive isolated tissues from various species such as the rat, mouse and guinea pig and in Chinese hamster ovary cells expressing the human recombinant NOP receptor (CHOhNop). The conditions adopted for studying the effects of the compounds in the electrically stimulated tissues (mouse and rat vas deferens, guinea pig ileum) are described in Bigoni et al. (Naunyn Schmiedebergs Arch Pharmacol 359, 160-7, 1999, herein incorporated by reference), whereas the conditions adopted for investigating the effects in CHOhNop cells are disclosed in Okawa et al. (Br J Pharmacol 127, 123-130, 1999, herein incorporated by reference).

mouse vas deferens = test: Electrically induced twitch inhibition, mouse vas deferens (mVD)
guinea pig ileum = test: Electrically induced twitch inhibition, guinea pig ileum (gpI)
mice [2] = format: in vivo, mouse
mice [3] = test: Mouse tail withdrawal assay (pronociception); format: in vivo
[4] = molecular target: T1, recombinant human NOP receptors expressed in HEK293 cells (Homo sapiens, UniProt P41146); settings: Okada et al. 2000; cited from earlier work
T1 construct: host or cells: HEK293 cells

[5] = molecular target: T2, human recombinant NOP receptor (Homo sapiens, UniProt P41146); test: biochemical; settings: CHOhNOP, stimulation of GTPγS binding
T2 construct: expressed in transfected cells; host or cells: Chinese hamster ovary (CHO) cells

[6] = molecular target: T2, human recombinant NOP receptor; test: cell-based; settings: CHOhNOP, cAMP inhibition
[7] = locomotor activity depression, i.c.v., mice

T2 sequence (P41146 whole entry): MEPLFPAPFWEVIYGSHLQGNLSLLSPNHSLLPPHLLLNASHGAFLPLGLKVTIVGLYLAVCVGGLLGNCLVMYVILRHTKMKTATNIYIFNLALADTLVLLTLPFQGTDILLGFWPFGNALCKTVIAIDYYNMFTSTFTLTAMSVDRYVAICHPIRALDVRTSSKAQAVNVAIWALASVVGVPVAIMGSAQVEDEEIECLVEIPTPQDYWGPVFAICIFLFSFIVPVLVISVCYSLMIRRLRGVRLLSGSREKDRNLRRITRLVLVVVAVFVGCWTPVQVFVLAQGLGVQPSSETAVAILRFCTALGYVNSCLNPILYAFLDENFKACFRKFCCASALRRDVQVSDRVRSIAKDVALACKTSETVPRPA
T1 sequence (P41146 whole entry): as above

Compound | Emax (mouse vas deferens) [%] | pEC50 (mouse vas deferens) | Emax (guinea pig ileum) [%] | pEC50 (guinea pig ileum) | Effective dose (mice [2]; [7]) [nmol] | Duration of action (mice [3]) [min] | Effective dose (mice [3]) [nmol] | also measured
[Nphe^1]N/OFQ(1-13)NH2 |  |  |  |  |  |  |  | pA2 (NOP receptor): 6.0-6.4
[(pI)Phe^4]-N/OFQ-NH2 |  |  |  |  |  |  |  | Potency compared with N/OFQ ([1]; isolated tissues): lower
CC(C)C[C@H](NC(=O)[C@H](CCCCN)NC(=O)[C@H](CCCNC(=N)N)NC(=O)[C@H](C)NC(=O)[C@H](CO)NC(=O)[C@H](CCCCN)NC(=O)[C@H](CCCNC(=N)N)NC(=O)[C@H](C)NC(=O)CNC(=O)[C@@H](NC(=O)[C@H](Cc1ccccc1)NC(=O)CNC(=O)CNC(=O)[C@@H](N)Cc1ccccc1)[C@@H](C)O)C(=O)N[C@@H](C)C(=O)N[C@@H](CC(N)=O)C(=O)N[C@@H](CCC(N)=O)C(=O)O [N/OFQ, reference compound] | 91 ± 2 | 7.77 | 56 ± 5 | 8.04 | 1 | 15 | 1 | 
[Arg^14,Lys^15]N/OFQ |  |  |  |  |  |  |  | Potency relative to N/OFQ [4]: 17 fold
H-Phe-Ψ(CH2NH)-Gly-Gly-(pF)Phe-Thr-Gly-Ala-Arg-Lys-Ser-Ala-Arg-Lys-Arg-Lys-Asn-Gln-NH2 [b)] |  |  |  |  |  |  |  | Intrinsic activity (full or partial agonist) ([1]; isolated tissues, maximal effect compared with N/OFQ): partial agonist activity
C[C@H](NC(=O)CNC(=O)[C@@H](NC(=O)[C@H](Cc1ccc(F)cc1)NC(=O)CNC(=O)CNC(=O)[C@@H](N)Cc1ccccc1)[C@@H](C)O)C(=O)N[C@@H](CCCNC(=N)N)C(=O)N[C@@H](CCCCN)C(=O)N[C@@H](CO)C(=O)N[C@@H](C)C(=O)N[C@@H](CCCNC(=N)N)C(=O)N[C@@H](CCCCN)C(=O)N[C@@H](CCCNC(=N)N)C(=O)N[C@@H](CCCCN)C(=O)N[C@@H](CC(N)=O)C(=O)N[C@@H](CCC(N)=O)C(N)=O [UFP-102] | 94 ± 1 | 9.36 | 55 ± 4 | 8.98 | 0.1 | >120 | 0.1 | EC50 [5]: 0.0759 nM; Emax [5]: 12.26 ± 1.37; EC50 [6]: 0.0676 nM; Emax [6]: 104 ± 3%; Duration of action (mice [2]; [7]): >3 h; Potency relative to N/OFQ (mice [2]; mouse, in vivo): more than 10 fold; Intrinsic activity (full or partial agonist) [1]: full agonist activity; Potency compared with N/OFQ [1]: higher than that of N/OFQ
